Key:
S. aureus DSM 20231 = assay: Bliss interaction score (quartile over a dose matrix) (fitness difference); higher = more antagonism (negative = synergy)
Summary of the method: (§1)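 Fitness is OD595 at stationary-phase entry relative to the plate's robust no-drug mean, capped at 1. Single-drug fitness was inferred from combinations. The Bliss score is observed minus product-expected fitness, summarised by quartiles over technical, biological and donor/recipient replicates.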

S. aureus Newman = assay: as above
Summary of the method: as §1

B. subtilis 168 = assay: as above
Summary of the method: as §1

S. pneumoniae D39V [1] = assay: as above
Summary of the method: as §1

S. pneumoniae D39V [2] = assay: fitness (endpoint OD595 vs no drug) (fraction); higher = more growth
Summary of the method: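 In 384-well plates at 37 °C, cultures began at OD595 0.01 in 30 µl, with 55 µl used for S. pneumoniae. OD595 readings every 30 min for 14 h were corrected by the first reading. Fitness divides the stationary-phase transition optical density by the robust mean of no-drug control wells. The result is capped at 1.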
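For Bliss interaction score (quartile over a dose matrix) in this document: first quartile when negative (synergy) and third quartile when positive (antagonism).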

CCCCCCCCCC(=O)N[C@@H](Cc1c[nH]c2ccccc12)C(=O)N[C@H](CC(N)=O)C(=O)N[C@@H](CC(=O)O)C(=O)N[C@@H]1C(=O)NCC(=O)N[C@@H](CCCN)C(=O)N[C@@H](CC(=O)O)C(=O)N[C@H](C)C(=O)N[C@@H](CC(=O)O)C(=O)NCC(=O)N[C@H](CO)C(=O)N[C@@H]([C@H](C)CC(=O)O)C(=O)N[C@@H](CC(=O)c2ccccc2N)C(=O)O[C@@H]1C [Daptomycin] + O=C1CN(/N=C/c2ccc([N+](=O)[O-])o2)C(=O)N1 [Nitrofurantoin]
Details | Bliss interaction score
B. subtilis 168 | -0.0871
S. aureus DSM 20231 | 0.0921
S. aureus Newman | 0.0519
S. pneumoniae D39V [1] | 0.0606

fitness, S. pneumoniae D39V [2]
Details | partner 1.285 µg/mL | partner 2 µg/mL | partner 2.57 µg/mL | partner 4 µg/mL | partner 8 µg/mL
first compound 1 µg/mL | 0.981 | 0.883 | 0.946 | 0.788 | 0.338
first compound 2 µg/mL | 0.943 | 0.85 | 0.904 | 0.763 | 0.327
first compound 4 µg/mL | 0.948 | 0.808 | 0.948 | 0.704 | 0.34

S. pneumoniae D39V [2], partner 5.14 µg/mL, one replicate
Details | fitness
first compound 1 µg/mL | 0.839
first compound 2 µg/mL | 0.82
first compound 4 µg/mL | 0.883

C[C@H]1COc2c(N3CCN(C)CC3)c(F)cc3c(=O)c(C(=O)O)cn1c23 [Levofloxacin] + C/C(=C\C(=O)OCCCCCCCCC(=O)O)C[C@@H]1OC[C@H](C[C@@H]2O[C@H]2[C@@H](C)[C@H](C)O)[C@@H](O)[C@H]1O [Pseudomonic acid]
Details | Bliss interaction score
B. subtilis 168 | 0.0468
S. aureus DSM 20231 | 0.0199
S. aureus Newman | 0.0537
S. pneumoniae D39V [1] | 0.0974

fitness, S. pneumoniae D39V [2]
Details | first compound 0.1725 µg/mL | first compound 0.2 µg/mL | first compound 0.345 µg/mL | first compound 0.4 µg/mL | first compound 0.69 µg/mL | first compound 0.8 µg/mL
partner 0.03 µg/mL | 0.875 | 0.899 | 0.856 | 0.882 | 0.598 | 0.647
partner 0.06 µg/mL | 0.822 | 0.752 | 0.781 | 0.766 | 0.541 | 0.687
partner 0.12 µg/mL | 0.57 | 0.573 | 0.524 | 0.599 | 0.376 | 0.519

C[C@H]1COc2c(N3CCN(C)CC3)c(F)cc3c(=O)c(C(=O)O)cn1c23 [Levofloxacin] + CN[C@H](CC(C)C)C(=O)N[C@H]1C(=O)N[C@@H](CC(N)=O)C(=O)N[C@H]2C(=O)N[C@H]3C(=O)N[C@H](C(=O)N[C@H](C(=O)O)c4cc(O)cc(O)c4-c4cc3ccc4O)[C@H](O)c3ccc(c(Cl)c3)Oc3cc2cc(c3O[C@@H]2O[C@H](CO)[C@@H](O)[C@H](O)[C@H]2O[C@H]2C[C@](C)(N)[C@H](O)[C@H](C)O2)Oc2ccc(cc2Cl)[C@H]1O [Vancomycin]
Details | Bliss interaction score
B. subtilis 168 | 0.0448
S. aureus DSM 20231 | -0.0494
S. aureus Newman | -0.0425
S. pneumoniae D39V [1] | -0.1

fitness, S. pneumoniae D39V [2]
Details | first compound 0.1725 µg/mL | first compound 0.2 µg/mL | first compound 0.345 µg/mL | first compound 0.4 µg/mL | first compound 0.69 µg/mL | first compound 0.8 µg/mL
partner 0.03125 µg/mL | – | 0.931 | – | 0.834 | – | 0.365
partner 0.0625 µg/mL | – | 0.893 | – | 0.812 | – | 0.436
partner 0.125 µg/mL | 0.857 | 0.704 | 0.818 | 0.605 | – | 0.292
partner 0.25 µg/mL | – | – | – | – | 0.213 | –
partner 0.5 µg/mL | 0.0371 | – | 0.0522 | – | 0.0787 | –

C[C@H]1COc2c(N3CCN(C)CC3)c(F)cc3c(=O)c(C(=O)O)cn1c23 [Levofloxacin] + CO[C@H]1/C=C/O[C@@]2(C)Oc3c(C)c(O)c4c(O)c(c(/C=N/N5CCN(C)CC5)c(O)c4c3C2=O)NC(=O)/C(C)=C\C=C\[C@H](C)[C@H](O)[C@@H](C)[C@@H](O)[C@@H](C)[C@H](OC(C)=O)[C@@H]1C [Rifampicin]
Details | Bliss interaction score
B. subtilis 168 | 0.0398
S. aureus DSM 20231 | 0.0251
S. aureus Newman | 0.0412
S. pneumoniae D39V [1] | 0.11

fitness, S. pneumoniae D39V [2]
Details | first compound 0.1725 µg/mL | first compound 0.345 µg/mL | first compound 0.4 µg/mL | first compound 0.69 µg/mL | first compound 0.8 µg/mL
partner 0.05 µg/mL | 0.902 | 0.848 | 0.724 | 0.611 | 0.665
partner 0.2 µg/mL | 0.356 | – | – | 0.288 | –

fitness, S. pneumoniae D39V [2], one replicate
Details | first compound 0.2 µg/mL | first compound 0.4 µg/mL | first compound 0.8 µg/mL
partner 0.025 µg/mL | 0.843 | 0.805 | 0.725
partner 0.2 µg/mL | 0 | 0 | 0

C[C@H]1COc2c(N3CCN(C)CC3)c(F)cc3c(=O)c(C(=O)O)cn1c23 [Levofloxacin] + Clc1ccc(COC(Cn2ccnc2)c2ccc(Cl)cc2Cl)c(Cl)c1 [Miconazole]
Details | Bliss interaction score
B. subtilis 168 | 0.0649
S. aureus DSM 20231 | -0.0265
S. aureus Newman | 0.0464
S. pneumoniae D39V [1] | 0.11

S. pneumoniae D39V [2]
Details | fitness
first compound 0.1725 µg/mL, partner 1.25 µg/mL | 0.955
first compound 0.1725 µg/mL, partner 2.5 µg/mL | 0.976
first compound 0.1725 µg/mL, partner 5 µg/mL | 0.963
first compound 0.2 µg/mL, partner 1.073 µg/mL | ≥ 1
first compound 0.2 µg/mL, partner 2.145 µg/mL | ≥ 1
first compound 0.2 µg/mL, partner 4.29 µg/mL | 0.978
first compound 0.345 µg/mL, partner 1.25 µg/mL | 0.866
first compound 0.345 µg/mL, partner 2.5 µg/mL | 0.856
first compound 0.345 µg/mL, partner 5 µg/mL | 0.859
first compound 0.4 µg/mL, partner 1.073 µg/mL | 0.934
first compound 0.4 µg/mL, partner 2.145 µg/mL | 0.941
first compound 0.4 µg/mL, partner 4.29 µg/mL | 0.825
first compound 0.69 µg/mL, partner 1.25 µg/mL | 0.576
first compound 0.69 µg/mL, partner 2.5 µg/mL | 0.432
first compound 0.69 µg/mL, partner 5 µg/mL | 0.578
first compound 0.8 µg/mL, partner 4.29 µg/mL | 0.769

Source: the supplement of paper PMC10627819
